In patent US7932390B2, “Substituted thieno[3,2-C]pyridine carboxylic acid derivatives” (Hoffman-La Roche Inc., priority 2006, dated 2011):
Structures can show the parent of a compound that is named as a salt.

What was measured:
Type in all cases: biochemical
b-Raf V600E Mutant = molecular target: T1, b-Raf V600E Mutant (Homo sapiens, UniProt P15056, V600E); experiment: b-Raf V600E mutant HTRF assay with 6H-MEK as substrate (dose response); conditions: recombinant human b-Raf residues 416-end with V600E mutation, GST-tag
T1 construct: recombinant human b-Raf residues 416-end containing a V600E mutation; purchased Upstate 14-5M; host or cells: baculovirus, Sf21 insect cells
Source text: (§1) Kinase Enzyme Inhibition Assay (IC50)
b-Raf V600E Mutant HTRF Assay with 6H-MEK as Substrate (Dose Response)
The assay utilizes 6H-MEK as the substrate. Upon b-Raf V600E phosphorylation, phosphorylated 6H-MEK is detected with rabbit anti-phospho-MEK1/2, Eu-labeled anti-rabbit, and APC-labeled anti-6H antibodies.
(§2) Reagents and Instruments:
Enzyme: recombinant human b-Raf residues 416-end containing a V600E mutation with N-terminal GST-tag from Upstate; (expressed by baculovirus in Sf21 insect cells), 0.26 mg/mL ([…] assuming a molecular weight of 67.3 kD) Cat. #14-5M, Lot #25633AU, stored at −80° C.
Substrate: WT full-length 6H-MEK from C. Belunis (May 26, 2004), 4.94 mg/mL (154.4 μM assuming a MW of 32 kD) stored at −15° C.
(§3) Antibodies: Rabbit (α-P-(Ser 217/221)-MEK-1/2 Ab (from Cell Signaling, Cat. #9121B, Lot 14); Eu-(α-rabbit IgG (from Wallac, Cat. # AD0083, Lot 318663, 710 ug/mL, 4.4 μM); (α-6H-SureLight-APC (from Martek, Cat. #AD0059H, Lot E012AB01, 3.03 μM).
(§4) Reader: Envision from PerkinElmer, HTRF reading mode with 412 mirror
(§5) Assay Plate Matrix all-black polypropylene plates (Cat. #4344)
(§6) Others: Weidman 384 polypropylene plates (REMP) for compound plate.
(§7) (1) Prepare Kinase Assay Buffer (KAB): 50 mM HEPES (HyClone) pH7, 10 mM MgCl2, 1 mM DTT, 0.1 mM […], and 0.3 mg/ml BSA.
(§8) (2) Prepare 6H-MEK (150 nM) in KAB. Add 12 μl/well to the assay plate.
(§9) (3) Prepare ATP (66 μM) in KAB.
(4) Dilute compounds to 2.4 mM and positive controls to 480 μM in DMSO. Perform 10-point 3× dilution in DMSO. Withdraw 2.5 μl/well of DMSO solution and add to 27.5 μl/well ATP solution in (3).
(§10) (5) Mix, then add 6 μl/well of solution in (4) to the assay plate for a DMSO concentration of 2.1% during MEK phosphorylation.
(6) Prepare b-Raf V600E ([…]) in KAB.
(7) Add 6 μl/well of KAB in columns 1-2 and 6 μl/well of b-Raf V600E in columns 3-24.
(§11) (8) Incubate at 37° C. for 30 min.
(9) Prepare rabbit α-P-(Ser 217/221)-MEK-1/2 Ab (1:200 from stock) in AB1: 50 mM HEPES pH7, 0.2 mg/ml BSA, and 43 mM EDTA.
(§12) (10) To stop reaction, add 6 μl/well of solution from (9) to the assay plate and incubate at 37° C. for 30 min.
(11) Prepare Eu-α-rabbit IgG (9 nM) and α-6H-SureLight-APC (180 nM) in AB2: 50 mM HEPES pH7 and 0.2 mg/ml BSA.
(§13) (12) Add 6 μl/well of solution from (11) to the assay plate.
(§14) (13) For determining the spectrum cross talk factor, prepare 2 samples following steps (1) to (10). For the blank sample, add 6 μl/well of AB2. For the cross talk factor sample, add 6 μl/well of Eu-anti rabbit IgG (9 nM).
(§15) (14) Incubate at room temperature for 1.5 hours.
(§16) (15) Read HTRF signals at 615 nm and 665 nm on the Envision. Normalize HTRF signals after spectrum cross-talk correction.

c-Raf = molecular target: T2, c-Raf (Homo sapiens, UniProt P04049); experiment: c-Raf HTRF assay with 6H-MEK as substrate (dose response); conditions: cloned human c-Raf with EE-tag
T2 construct: made in house; host or cells: baculovirus, High-5 (Hi5) insect cells, co-infected with FLAG-vSrc virus
Experimental: as §1
c-Raf HTRF Assay with 6H-MEK as Substrate (Dose Response)
The assay utilizes 6H-MEK as the substrate. Upon c-Raf phosphorylation, phosphorylated 6H-MEK is detected with rabbit anti-phospho-MEK1/2, Eu-labeled anti-rabbit, and APC-labeled anti-6H antibodies.
as §2
Enzyme: cloned human c-Raf with EE-tag; phosphorylated (co-expressed with v-src-FLAG in baculovirus Hi5 cells), 0.2 mg/mL (2.74 μM assuming a molecular weight of 73 kD) stored at −15° C.
Substrate: WT full-length 6H-MEK, 4.94 mg/mL (154.4 μM assuming a MW of 32 kD) stored at −15° C.
as §3, §4, §5, §6, §7, §8, §9
(§17) (4) Dilute compounds to 2.4 mM and any positive controls to 480 μM in DMSO. Perform 10-point 3× dilution in DMSO. Withdraw 2.5 μl/well of DMSO solution and add to 27.5 μl/well ATP solution in (3).
as §10
(6) Prepare c-Raf (12 nM) in KAB.
(7) Add 6 μl/well of KAB in columns 1-2 and 6 μl/well of c-Raf in columns 3-24.
as §11
(9) Prepare rabbit (α-P-(Ser 217/221)-MEK-1/2 Ab (1:240 from stock) in AB1: 50 mM HEPES pH7, 0.2 mg/ml BSA, and 43 mM EDTA.
as §12
(11) Prepare Eu-(α-rabbit IgG (9 nM) and (α-6H-SureLight-APC (120 nM) in AB2: 50 mM HEPES pH7 and 0.2 mg/ml BSA.
as §13, §14, §15, §16
Expression and Purification of c-Raf
N terminal EE-tagged c-Raf was expressed in High-5 cells. A five liter culture was co-transfected with virus for EE-c-Raf and FLAG-vSrc at a ratio of 1:2 and harvested after 48 hours. The cell pellet was lysed in TBS containing 5 mM EDTA, 50 mM KF, 20 mM Na pyrophosphate, 20 mM β-glycerolphsphate, 0.5 mM Na VO3, 1% NP-40 (w/v) and Complete Protease Tablets. The lysate was centrifuged at 20,000×g for 1 hour. The supernatant was incubated with 8 ml of anti-EE tag-Protein G Sepharose for 2 hours at 4° C. The resin was then washed with 30 volumes of the above buffer. The c-Raf protein was eluted by incubation with the above buffer containing 100 mg/ml of EE peptide for 1 hour at 4° C. Protein was concentrated using an Amicon Stir Cell with an YM10 membrane. The concentrated protein was dialyzed against TBS containing 1 mM DTT and 30% Glycerol. Protein concentration was determined by the BioRad DC method.
E. coli cells containing the plasmid for the expression of 6H-MEK1 (62-393) were grown in Rich Media and induced with 1 mM IPTG for 24 hours at 22° C. The cell pellet was resuspent in 50 mM potassium phosphate buffer, pH 8.0, 300 mM NaCl, 5 mM MgCl2, 10 mM CHAPS, 2 mM TCEP, and Complete Protease Inhibitor Tablets. Cells were disrupted by sonication. The lysate was cleared by centrifugation at 13,000×g for 45 minutes. […]

b-Raf Wild-Type = molecular target: T3, b-Raf Wild-Type (Homo sapiens, UniProt P15056); experiment: b-Raf wild-type HTRF assay with 6H-MEK as substrate (dose response); conditions: recombinant human b-Raf wild-type residues 416-end, GST-tag
T3 construct: recombinant human b-Raf residues 416-end; purchased Upstate 14-530M; host or cells: baculovirus, Sf21 insect cells
Experimental: as §1
b-Raf Wild-Type HTRF Assay with 6H-MEK as Substrate (Dose Response)
The assay utilizes 6H-MEK as the substrate. Upon b-Raf WT phosphorylation, phosphorylated 6H-MEK is detected with rabbit anti-phospho-MEK1/2, Eu-labeled anti-rabbit, and APC-labeled anti-6H antibodies.
as §2
Enzyme: recombinant human b-Raf residues 416-end with N-terminal GST-tag from Upstate; (expressed by baculovirus in Sf21 insect cells), 0.26 mg/mL (3.87 μM assuming a molecular weight of 67.2 kD) Cat. #14-530M, Lot #25502AU, stored at −80° C.
Substrate: WT full-length 6H-MEK from C. Belunis (5126104), 4.94 mg/mL (154.4 μM assuming a MW of 32 kD) stored at −15° C.
Antibodies: Rabbit (α-P-(Ser 217/221)-MEK-1/2 Ab (from Cell Signaling, Cat. #9121B, Lot 14); Eu-(α-rabbit IgG (from Wallac, Cat. #AD0083, Lot 318663, 710 ug/mL, 4.4 μM); (α-6H-SureLight-APC (from Martek, Cat. #AD0059H, Lot E012AB01, 3.03 μM).
as §4, §5, §6, §7, §8, §9, §17, §10
(6) Prepare b-Raf WT ([…]) in KAB.
(7) Add 6 μl/well of KAB in columns 1-2 and 6 μl/well of b-Raf WT in columns 3-24.
as §11
(9) Prepare rabbit (α-P-(Ser 217/221)-MEK-1/2 Ab (1:200 from stock) in AB1: 50 mM HEPES pH7, 0.2 mg/ml BSA, and 43 mM EDTA.
as §12
(11) Prepare Eu-(α-rabbit IgG (9 nM) and (α-6H-SureLight-APC (180 nM) in AB2: 50 mM HEPES pH7 and 0.2 mg/ml BSA.
as §13, §14, §15, §16

T3 sequence (P15056 416-766 limits assumed): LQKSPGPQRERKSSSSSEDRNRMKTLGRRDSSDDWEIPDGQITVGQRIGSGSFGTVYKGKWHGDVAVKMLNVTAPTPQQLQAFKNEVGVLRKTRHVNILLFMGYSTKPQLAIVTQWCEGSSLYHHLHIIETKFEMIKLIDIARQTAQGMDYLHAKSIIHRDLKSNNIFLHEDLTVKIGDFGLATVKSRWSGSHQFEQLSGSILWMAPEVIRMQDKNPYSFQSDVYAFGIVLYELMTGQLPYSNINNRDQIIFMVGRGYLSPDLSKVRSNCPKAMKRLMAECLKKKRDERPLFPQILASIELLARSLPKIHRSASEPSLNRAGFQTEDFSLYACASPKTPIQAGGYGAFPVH
T2 sequence (P04049 whole entry): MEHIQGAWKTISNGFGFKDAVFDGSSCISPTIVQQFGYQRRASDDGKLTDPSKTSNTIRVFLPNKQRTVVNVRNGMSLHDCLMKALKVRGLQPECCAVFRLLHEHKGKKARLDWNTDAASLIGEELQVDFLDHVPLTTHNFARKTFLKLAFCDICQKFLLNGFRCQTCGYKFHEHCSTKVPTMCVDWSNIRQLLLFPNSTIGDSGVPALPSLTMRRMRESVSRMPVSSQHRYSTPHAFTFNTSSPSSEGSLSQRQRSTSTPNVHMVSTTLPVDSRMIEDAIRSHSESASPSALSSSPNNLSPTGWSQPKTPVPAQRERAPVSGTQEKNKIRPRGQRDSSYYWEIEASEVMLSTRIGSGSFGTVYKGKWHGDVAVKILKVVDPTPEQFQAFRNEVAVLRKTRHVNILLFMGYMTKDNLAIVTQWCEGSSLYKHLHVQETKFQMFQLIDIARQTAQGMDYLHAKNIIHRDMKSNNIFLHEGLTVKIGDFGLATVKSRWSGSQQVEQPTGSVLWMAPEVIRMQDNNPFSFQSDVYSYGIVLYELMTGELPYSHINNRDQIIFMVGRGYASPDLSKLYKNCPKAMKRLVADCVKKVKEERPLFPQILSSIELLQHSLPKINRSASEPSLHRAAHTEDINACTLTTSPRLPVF
T1 sequence (P15056 416-766 V600E): as the sequence (P15056 416-766 limits assumed) above, with V185E counted along it

Structure (SMILES) | IC50 (b-Raf V600E Mutant) [nM] | IC50 (c-Raf) [nM] | IC50 (b-Raf Wild-Type) [nM]
Cc1nnc(-c2cccc(OCc3csc4c(C(=O)NCCO)cnc(N)c34)c2)o1 [Example 10, 4-Amino-3-[3-(5-methyl-[1,3,4]oxadiazol-2-yl)-phenoxymethyl]-thieno[3,2-c]pyridine-7-carboxylic acid (2-hydroxy-ethyl)-amide] | 327 | 768 | 1300
Cc1ccc(-c2nnc(-c3ccc(Cl)cc3)o2)cc1OCc1csc2c(C(=O)NCCO)cnc(N)c12 [Example 49, 4-Amino-3-{5-[5-(4-chloro-phenyl)-[1,3,4]oxadiazol-2-yl]-2-methyl-phenoxy-methyl}-thieno[3,2-c]pyridine-7-carboxylic acid (2-hydroxy-ethyl)-amide trifluoroacetic acid salt] | 920 | 17 | 5140
CCOC(=O)c1cnc(N)c2c(COc3cccc(-c4nnc(C)o4)c3)csc12 [Example 9, 4-Amino-3-[3-(5-methyl-[1,3,4]oxadiazol-2-yl)-phenoxymethyl]-thieno[3,2-c]pyridine-7-carboxylic acid ethyl ester] | 997 | 5420 | 12700
Cc1ccc(-c2cn(C)nn2)cc1OCc1csc2c(C(=O)NCCO)cnc(N)c12 [Example 24, 4-Amino-3-[2-methyl-5-(1-methyl-1H-[1,2,3]triazol-4-yl)-phenoxymethyl]-thieno[3,2-c]pyridine-7-carboxylic acid (2-hydroxy-ethyl)-amide] | > 50000 | 11.9 | 45

The next molecules have a lower IC50 (b-Raf V600E Mutant) than those just listed; values first:

IC50 (b-Raf V600E Mutant) [nM] | IC50 (c-Raf) [nM] | IC50 (b-Raf Wild-Type) [nM] | Structure (SMILES)
258 | 341 | 1680 | Cn1nnc(-c2cccc(OCc3csc4c(C(=O)NCCO)cnc(N)c34)c2)n1 [Example 33, 4-Amino-3-[3-(2-methyl-2H-tetrazol-5-yl)-phenoxymethyl]-thieno[3,2-c]pyridine-7-carboxylic acid (2-hydroxy-ethyl)-amide]
94 | 231 | 544 | COc1ccc(Cn2nnc(-c3cccc(OCc4csc5c(C(=O)NCCO)cnc(N)c45)c3)n2)cc1 [Example 29, 4-Amino-3-{3-[2-(4-methoxy-benzyl)-2H-tetrazol-5-yl]-phenoxymethyl}-thieno[3,2-c]pyridine-7-carboxylic acid (2-hydroxy-ethyl)-amide]
17 | 41 | 117 | Cc1nnc(-c2ccc(C)c(OCc3csc4c(C(=O)NCCO)cnc(N)c34)c2)o1 [Example 14, 4-Amino-3-[2-methyl-5-(5-methyl-[1,3,4]oxadiazol-2-yl)-phenoxymethyl]-thieno[3,2-c]pyridine-7-carboxylic acid (2-hydroxy-ethyl)-amide trifluoro-acetic acid salt]
